Results published in patent US8431169B2, “Nutraceutical composition and methods of use” (Dacy Tech Pty Ltd, priority 2007, dated 2013).

Experiments:
[1] = system: Normal Human Articular Chondrocytes (NHAC-knee); assay: BrdU cell proliferation assay; assay type: cell-based
Description: Clonetics® Normal Human Articular Chondrocytes (NHAC-knee) obtained from Lonza Australia Pty Ltd, were grown in chondrocyte growth medium (CGM) supplemented with growth factors. NHACs were used at passage #3-4 for all experiments.
The following assays were carried out using the protocols as per kit instructions:
Each of the above fractions was then individually assayed again for viability/cytotoxicity, cell growth and proliferation, apoptosis/necrosis using the tests as previously mentioned.

[2] = system: IL-1 stimulated and unstimulated cartilage explants; assay: nitric oxide (nitrite) in media from cartilage explants; assay type: cell-based, pig; details: IL-1-stimulated explants; indosim
Description: Simulated digests were prepared using SEQ (0.85 g), BO [2.5 mL (0.85 g)] and indomethacin (0.074 g—a positive anti-inflammatory control). Each test substance was individually suspended in 35 mL of simulated gastric fluid (37 mM NaCl, 0.03N HCl, 3.2 mg/mL pepsin), and shaken at 37° C. for 2 h (Rininger et al., 2000). After this, solution acidity was neutralized by adding an equinormal volume of 2.2 N NaOH (1.15 mL). To this was added 36.15 mL of simulated intestinal fluid (Rininger et al., 2000−30 mM K2HPO4, 160 mM NaH2PO4; 20 mg/mL pancreatin; pH adjusted to 7.4) and the resultant mixture shaken in a 37° C. incubator for a further 2 h. A “blank” was prepared using identical methodology but without including any test substance.
The supernatant was decanted and centrifuged a second time at 3,000×g for 15 min at 4° C. […]
Synovial fluid [NO]: Nitrite (NO2^−), a stable oxidation product of NO, was analyzed by the Griess reaction (Fenton et al., 2002). […] Sulfanilamide (0.01 g/mL) and N-(1)-Napthylethylene diamine hydrochloride (1 mg/mL) dissolved in phosphoric acid (0.085 g/L) was added to all wells, and absorbance was read within 5 minutes on a Victor 3 microplate reader at 530 nm. Sample absorbance was compared to a sodium nitrite standard.

[3] = system: IL-1-stimulated and unstimulated cartilage explants; assay: cell viability staining of cartilage explants (C-AM / EthD-1); assay type: cell-based, pig; details: indosim 0.02 mg/mL
Description: Front legs of market weight pigs (5-7 months old, 200-250 lbs) were obtained from a local abattoir. Legs were chilled on crushed ice until dissection. Using aseptic technique, the intercarpal joint was opened and the cartilage surfaces exposed. A 4 mm dermal biopsy punch was used to take explants ( 0.5 mm thickness; 11-15 mg/explant) of healthy cartilage from the weight-bearing region of both articulating surfaces of the intercarpal joint. Cartilage pieces were washed 3 times in Dubelco's Modified Eagle Medium (DMEM) supplemented with NaHCO3. Two cartilage discs were placed into each well of 24-well tissue culture plates containing DMEM supplemented with amino acids, sodium selenite, manganese sulfate, NaHCO3 and ascorbic acid (TCM-tissue culture medium). Plates were incubated at 37° C., 7% CO2 in a humidified atmosphere for up to 144 h. Every 24 h media was completely aspirated into 1 mL microcentrifuge tubes and immediately replaced with control, conditioned and/or stimulated media (described below) before being returned to the incubator. […] Media was analyzed for [PGE2], [GAG], and [NO]. […] Cell viability was determined using a commercially available viability staining kit (Invitrogen; Burlington ON) (Pearson et al., 2007). […] The plate was read from the bottom of each well using 10 horizontal steps, 3 vertical steps, and a 0.1 mm displacement.

[4] = system: aggrecan; assay: aggrecan RNA expression in cartilage explants (real time RT-PCR); assay type: cell-based, pig; details: indosim 0.02 mg/mL
Description: Front legs of market weight pigs (5-7 months old, 200-250 lbs) were obtained from a local abattoir. Legs were chilled on crushed ice until dissection. Using aseptic technique, the intercarpal joint was opened and the cartilage surfaces exposed. A 4 mm dermal biopsy punch was used to take explants (˜0.5 mm thickness; 11-15 mg/explant) of healthy cartilage from the weight-bearing region of both articulating surfaces of the intercarpal joint. Cartilage pieces were washed 3 times in Dubelco's Modified Eagle Medium (DMEM) supplemented with NaHCO3. Two cartilage discs were placed into each well of 24-well tissue culture plates containing DMEM supplemented with amino acids, sodium selenite, manganese sulfate, NaHCO3 and ascorbic acid (TCM—tissue culture medium). Plates were incubated at 37° C., 7% CO2 in a humidified atmosphere for up to 144 h. Every 24 h media was completely aspirated into 1 mL microcentrifuge tubes and immediately replaced with control, conditioned and/or stimulated media (described below) before being returned to the incubator. The collected media was stored at −80° C. until analysis. Cartilage was harvested at the end of each experiment with one explant per well stained for cytotoxicity and the remaining cartilage immediately frozen at −80° C. […]
SEQsim was prepared as explained above. […] Media was analyzed for [PGE2], [GAG], and [NO]. […]

[5] = system: IL-1 stimulated and unstimulated cartilage explants; assay: GAG release into media by cartilage explants (1,9-DMB assay); assay type: cell-based, pig; details: indosim 0.02 mg/mL
Description: Front legs of market weight pigs (5-7 months old, 200-250 lbs) were obtained from a local abattoir. Legs were chilled on crushed ice until dissection. Using aseptic technique, the intercarpal joint was opened and the cartilage surfaces exposed. A 4 mm dermal biopsy punch was used to take explants ( 0.5 mm thickness; 11-15 mg/explant) of healthy cartilage from the weight-bearing region of both articulating surfaces of the intercarpal joint. Cartilage pieces were washed 3 times in Dubelco's Modified Eagle Medium (DMEM) supplemented with NaHCO3. Two cartilage discs were placed into each well of 24-well tissue culture plates containing DMEM supplemented with amino acids, sodium selenite, manganese sulfate, NaHCO3 and ascorbic acid (TCM-tissue culture medium). Plates were incubated at 37° C., 7% CO2 in a humidified atmosphere for up to 144 h. Every 24 h media was completely aspirated into 1 mL microcentrifuge tubes and immediately replaced with control, conditioned and/or stimulated media (described below) before being returned to the incubator. […] Media was analyzed for [PGE2], [GAG], and [NO]. […] Media GAG concentration was determined using a 1,9-DMB spectrophotometric assay (Chandrasekhar et al., 1987). […] Plates were incubated in the dark for 10 minutes, and absorbance was read on a Victor 3 microplate reader at 530 nm. Sample absorbance was compared to that of a chondroitin sulfate standard. […]

[6] = system: iNOS; assay: iNOS expression in IL-1-stimulated cartilage explants; assay type: cell-based, pig; details: IL-1-stimulated explants
Description: Simulated digests were prepared using SEQ (0.85 g), BO [2.5 mL (0.85 g)] and indomethacin (0.074 g—a positive anti-inflammatory control). […]

Structure (SMILES) | NHAC proliferation (BrdU) [1] | IL-1-mediated NO production [2] | cell viability ([3]; IL-1-stimulated explants) | cell viability ([3]; unstimulated explants) | aggrecan increase after IL-1 stimulation ([4]; IL-1-stimulated (10 ng/mL) explants) | increase in aggrecan expression ([4]; unstimulated explants) [fold] | media [GAG] compared with stimulated controls ([5]; IL-1-stimulated explants, p=0.1) | media [GAG] compared with unstimulated controls ([5]; unstimulated explants) | IL-1-mediated iNOS expression [6]
CCCCCCCCC=CCCCCCCCC(=O)O [Fraction F1.4, 9-Octadecenoic acid] | most active | – | – | – | – | – | – | – | –
COc1ccc2c(c1)c(CC(=O)O)c(C)n2C(=O)c1ccc(Cl)cc1 [indosim, indomethacin] | – | increase | no significant effect | no significant effect | completely abolished | 58 | elevated compared with stimulated controls over the duration of the experiment, but not significantly | significantly higher | augmenting effect
